# Measurements: article PMC7073023, “Overexpression of ABCB1 Transporter Confers Resistance to mTOR Inhibitor WYE-354 in Cancer Cells” (International Journal of Molecular Sciences, 2020)
# Key:
# ABCB1 [1] = target: T1, ABCB1 (Homo sapiens, UniProt P08183); assay: cell-based; design: full length ABCB1 (transfected HEK293); ABCB1 membrane vesicles (ATPase kit); details: read-out: % of the basal activity
# ABCB1 [2] = target: T1, ABCB1
# T1 sequence (P08183 whole entry): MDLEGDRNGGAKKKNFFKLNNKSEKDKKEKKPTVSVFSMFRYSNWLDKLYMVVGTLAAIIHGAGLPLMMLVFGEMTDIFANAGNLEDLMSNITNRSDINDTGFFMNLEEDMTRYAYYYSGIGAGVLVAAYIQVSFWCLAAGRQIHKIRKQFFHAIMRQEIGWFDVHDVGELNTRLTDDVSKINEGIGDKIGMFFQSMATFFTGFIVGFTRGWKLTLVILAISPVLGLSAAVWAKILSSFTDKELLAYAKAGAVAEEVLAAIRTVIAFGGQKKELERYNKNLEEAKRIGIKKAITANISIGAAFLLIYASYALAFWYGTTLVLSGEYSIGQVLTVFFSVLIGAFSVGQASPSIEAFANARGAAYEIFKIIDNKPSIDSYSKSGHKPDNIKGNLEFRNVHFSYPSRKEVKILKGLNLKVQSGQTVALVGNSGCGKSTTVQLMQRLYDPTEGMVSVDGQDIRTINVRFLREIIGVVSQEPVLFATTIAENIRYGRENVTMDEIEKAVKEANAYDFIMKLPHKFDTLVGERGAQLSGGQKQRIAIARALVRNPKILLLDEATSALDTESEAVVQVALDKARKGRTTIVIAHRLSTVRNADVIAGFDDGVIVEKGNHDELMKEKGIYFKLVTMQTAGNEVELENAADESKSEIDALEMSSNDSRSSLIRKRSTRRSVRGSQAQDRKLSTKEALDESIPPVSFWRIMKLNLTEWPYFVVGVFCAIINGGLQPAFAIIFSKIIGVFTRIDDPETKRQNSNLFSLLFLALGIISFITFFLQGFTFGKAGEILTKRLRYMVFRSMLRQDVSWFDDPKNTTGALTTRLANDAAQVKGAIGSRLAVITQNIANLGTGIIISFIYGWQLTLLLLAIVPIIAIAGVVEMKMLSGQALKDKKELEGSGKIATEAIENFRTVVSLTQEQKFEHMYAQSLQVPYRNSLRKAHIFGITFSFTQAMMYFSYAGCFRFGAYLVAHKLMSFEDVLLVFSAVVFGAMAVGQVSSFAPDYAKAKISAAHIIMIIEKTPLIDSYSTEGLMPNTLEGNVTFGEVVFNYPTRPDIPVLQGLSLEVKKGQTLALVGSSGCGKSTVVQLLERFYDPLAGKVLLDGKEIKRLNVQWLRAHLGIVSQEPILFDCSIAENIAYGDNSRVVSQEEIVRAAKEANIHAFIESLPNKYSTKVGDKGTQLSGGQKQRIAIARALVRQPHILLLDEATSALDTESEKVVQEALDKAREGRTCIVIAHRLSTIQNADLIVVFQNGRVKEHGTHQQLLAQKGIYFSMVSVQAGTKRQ
Emax (ABCB1 [1]),SMILES,[3H]-paclitaxel accumulation in ABCB1-overexpressing and ABCB1-transfected cells (ABCB1 [2])
141%,COC(=O)Nc1ccc(-c2nc(N3CCOCC3)c3cnn(C4CCN(C(=O)OC)CC4)c3n2)cc1 [WYE-354],–
–,CC(=O)O[C@H]1C(=O)[C@@]2(C)[C@H]([C@H](OC(=O)c3ccccc3)[C@]3(O)C[C@H](OC(=O)[C@H](O)[C@@H](NC(=O)c4ccccc4)c4ccccc4)C(C)=C1C3(C)C)[C@]1(OC(C)=O)CO[C@@H]1C[C@@H]2O [paclitaxel],"drug–drug interaction between WYE-354 and paclitaxel, which is a known substrate of ABCB1"
